{
  "source": "patent US20050002868A1",
  "about": "“Method of treatment of a female suffering from androgen insufficiency” (Acrux DDS Pty Ltd., priority 2003, published 2005)",
  "assay": "Open label, randomised two-way cross-over pharmacokinetic study of free serum testosterone after daily transdermal spray for 5 days",
  "format": "in vivo, women",
  "method": "The study was a single centre, open label pharmacokinetic study, with a randomised, two-way, cross-over design. The two treatment periods were 5 days with an eight day washout between treatments. Intensive blood sampling was performed on day 5 of each treatment period for pharmacokinetic analysis. The treatments consisted of daily application of 2×91 μL sprays for 5 days, either applied to the abdomen or forearm. Free serum testosterone concentration profiles were measured over 24 hours after daily administration of transdermal testosterone for 5 days to 6 healthy surgically menopausal women stabilized on oral oestrogen therapy. HPLC separation (followed by RIA) and equilibrium dialysis were used to measure free testosterone (Esoterix Inc.).",
  "data": [
    {"smiles": "C[C@]12CC[C@H]3[C@@H](CCC4=CC(=O)CC[C@@]43C)[C@@H]1CC[C@@H]2O", "note": "[testosterone]", "values": [
      {"measurement": "average serum concentrations of free testosterone, forearm compared with abdomen", "setting": "application to the forearm, day 5, FIG. 1", "value": "significantly higher"},
      {"measurement": "Steady-state concentrations of free testosterone", "setting": "daily application for 5 days, abdomen or forearm", "value": "attained on day 5"},
      {"measurement": "variation of free testosterone serum concentrations, abdomen compared with forearm", "setting": "dose application to the abdomen, day 5, FIG. 1", "value": "considerably less variation"}
    ]}
  ]
}
